Reference: patent US4389343A, “Immunopotentiating peptides from thymus” (Hoffmann-La Roche Inc., priority 1981, dated 1983)
Where no end group is shown, it is not given here.

Key:
[1] = tested on: Candida albicans ATCC 10231; test: protective activity against opportunistic infections in immunosuppressed mice; format: in vivo; settings: female ddY mice infected with Candida albicans 24 hours after last treatment
Experimental: The compounds of formula I were tested for protective activity against opportunistic infections in immunosuppressed mice. Female ddY mice (6 weeks old) weighing about 25 g were pretreated daily for eight days with 5-fluorouracil (5-FU) (25 mg/kg/day, i.p.) and with thymosin α1or with compounds of formula I (i.p.) at varying dosages. The mice were then infected with Candida albicans ATCC 10231 (1×10^5 cells or more) at 24 hours after the last treatment. One control group was administered 5-FU and saline solution and a second control group received neither 5-FU nor a thymic polypeptide prior to infection with Candida albicans.

[2] = isoelectric point by preparative isoelectric focusing; format: physicochemical
Experimental: It is preferred that the compound of formula II be separated conventionally from Thymosin Fraction 5 using preparative isoelectric focusing, with the proteins recovered therefrom being purified by HPLC. By such a procedure, for example, 1.2 grams of Thymosin Fraction 5 provided 16 mg of thymosin α1, 16 mg of thymosin β4 and 1 mg of the compound of formula II. The isoelectric point for the compound of formula II was pH 4.62.
Any reverse phase hydrophobic resin may be employed in a conventional manner in the HPLC isolation. Among such resins there are included, for example, a hydrocarbon (C8 to C18) on any inert matrix such as silica gel, glass, polysaccharides and the like, which matrix is inert to the eluting agent being employed. The preferred resin is a straight chain C18 hydrocarbon bonded to silica gel or glass beads. […]
A sample of thymosin Fraction 5 (1.2 g) was dissolved in 100 ml of 2% ampholine for separation in the pH range 4-6 and filtered through a 0.45 μm molecular pore filter. […] The focused gel was cut with a grid into 30 sections, each of which was eluted on a small column with 5 ml of H2 O. The pH of eluate was determined at 0° C. […] Fractions (0.7 ml) were collected every 2 min and aliquots (5 μl of a 1:25 dilution) of each aliquot analyzed by direct injection into the borate buffer line of the fluorescamine detector, because the automatic column monitoring was off-scale.

[3] = 4 μg/kg/day i.p. daily for eight days with 5-FU 25 mg/kg/day i.p.
[4] = 40 μg/kg/day i.p. daily for eight days with 5-FU 25 mg/kg/day i.p.
[5] = 0.4 μg/kg/day i.p. daily for eight days with 5-FU 25 mg/kg/day i.p.

Substance | Survivors at Day 8 [1, 3] | Survivors at Day 15 [1, 3] | Survivors at Day 8 [1, 4] | Survivors at Day 15 [1, 4] | Survivors at Day 8 [1, 5] | Survivors at Day 15 [1, 5] | isoelectric point [2] [pH]
Thymosin α1: acidic peptide containing 28 amino acid residues isolated from Thymosin Fraction 5, U.S. Pat. No. 4,079,127 (SDAAVDTSSEITTKDLKEKKEVVEEAEN; ends and bridges not checked; UniProt P01252 2-29, looked up) | 7/10 | 6/10 | 7/10 | 7/10 |  |  | 
Thymosin β4: peptide isolated from Thymosin Fraction 5 containing 44 amino acid residues | 5/10 | 5/10 | 1/10 | 1/10 | 7/10 | 6/10 | 
Thymosin β8: polypeptide isolated from calf thymus Fraction 5, 4,518 daltons, 39 amino acid residues, NH2-terminus acetyl alanine (ADKPDLGEINSFDKAKLKKTETQEKNTLPTKETIEQEKQ; thymosin beta-8 N-terminal acetyl; UniProt P21752 2-40, looked up, fragment) |  |  |  |  |  |  | 4.62
Thymosin β9: polypeptide from fresh frozen calf thymus, identical to thymosin β8 plus --Ala--LysOH at the COOH-terminus, 4,717 daltons, 41 amino acids (ADKPDLGEINSFDKAKLKKTETQEKNTLPTKETIEQEKQAK; not fully specified; Thymosin beta-9; UniProt P21752 2-42, looked up) |  |  |  |  |  |  | 5.14
